Assay results from patent US20130022629A1, “Modulators of Immunoinhibitory Receptor PD-1, and Methods of Use Thereof” (priority 2010, published 2013).
Entries after “also recorded” stand apart in the source; their conditions may differ.

Experiments:
[1] = target: T1, PD-1 (Mus musculus, UniProt Q02242); assay: Validation (secondary screen): rescue of PD-1 mediated inhibition of IFN-γ production in PD-1^C (Tg) T cells; format: cell-based; details: PD-L2Ig versus control Ig (FIG. 3)
T1 construct: expressed in transfected cells; host or cells: CD4 T cells purified from spleens of PD-1^C transgenic mice (transgene-driven constitutive PD-1)
T1 sequence (Q02242 25-288): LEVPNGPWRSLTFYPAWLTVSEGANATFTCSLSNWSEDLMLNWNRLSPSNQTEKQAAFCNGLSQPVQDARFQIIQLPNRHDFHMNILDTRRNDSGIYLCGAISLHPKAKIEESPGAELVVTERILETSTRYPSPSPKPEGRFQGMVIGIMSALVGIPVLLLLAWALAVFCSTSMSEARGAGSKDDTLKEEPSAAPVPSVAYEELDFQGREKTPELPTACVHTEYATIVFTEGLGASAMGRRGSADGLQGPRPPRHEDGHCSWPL
Description: (§1) In vitro assays to test for compounds that interfere with the PD-1 function have been developed. These assays utilize unique mouse strains to specifically identify PD-1-specific effects. For example, a transgenic mouse that constitutively expresses PD-1 on T cells (PD-1^C) has been developed (43). It has recently been disclosed that PD-1^C T cells are very susceptible to signaling through PD-1, as measured by a decrease in T cell proliferation and cytokine production. These PD-1^C T cells can be used to assess the functional effects of small molecules. A PD-1 deficient mouse (PD-1^−/−) has also been developed (44), and T cells from such mice will serve as useful controls for in vitro as well as in vivo studies.
In certain embodiments, PD-1^C T cells are cultured with a proliferative stimulus (anti-CD3) plus either PD-L2-Ig or a negative control Ig fusion protein. […]
The specificity of the effects of sulfamonomethoxine and sulfamethizole were assessed by comparing responses of wild type, PD-1^c, and PD-1^−/− T cells. The effects of sulfamonomethoxine and sulfamethizole were evaluated over a range of compound concentrations (dilution series from 16 nM to 80 μM) and analyzed their effects on T cell proliferation and cytokine production. […]

[2] = tested on: PD-1^−/− T cells; assay: Specificity control: responses of PD-1^−/− (KO) T cells to compound; format: cell-based, mouse; details: PD-1^−/− T cells over the range of compound concentrations (FIG. 3)
Description: as §1, with “studies. In certain embodiments, PD-1^C T cells are cultured with a proliferative stimulus (anti-CD3) plus either PD-L2-Ig or a negative control Ig fusion protein. […] The specificity of the effects of sulfamonomethoxine and sulfamethizole were assessed by comparing responses of wild type, PD-1^c, and PD-1^−/− T cells. The effects of sulfamonomethoxine and sulfamethizole were evaluated over a range of compound concentrations (dilution series from 16 nM to 80 μM) and analyzed their effects on T cell proliferation and cytokine production. […]” for “studies.”

[3] = target: T1, PD-1; assay: Primary screen: IFN-γ production by PD-1^C T cells with plate-bound anti-CD3 plus PD-L2Ig or control Ig; format: cell-based; details: compared with negative control wells on the plate (FIG. 2)
Experimental: In certain embodiments, PD-1^C T cells are cultured with a proliferative stimulus (anti-CD3) plus either PD-L2-Ig or a negative control Ig fusion protein. PD-1^C T cells proliferate less and produce lower amounts of cytokines when cultured with PD-L2-Ig as compared to the negative control Ig fusion protein because PD-1-ligands deliver an inhibitory signal through PD-1. Compounds of interest will modulate this inhibitory interaction in wild type and PD-1^C T cells, but not in PD-1^−/− cells. Thus, compounds which are antagonists will block PD-1 inhibitory function and lead to increased T cell responses by wild type and PD-1^C T cells, but will not affect PD-1^−/− T cells. Conversely, compounds which are agonists will deliver an inhibitory signal, and reduce T cell responses by wild type and PD-1^C T cells, but not PD-1^−/− T cells.
Because it is believed that PD-1 can inhibit cytokine (IFN-γ) production to a greater extent than T cell proliferation in a number of situations (36, 44), in certain embodiments IFN-γ production was chosen as the readout, using a bead-based fluorescent ELISA assay. These beads have a broad dynamic range (about 1 pg/mL to about 5 ng/mL), robust detection of cytokines from complex solutions (including culture media), minimal time requirement (about 3 hours from start to finish), and homogeneous format (no washing required). […]

SMILES	specificity: rescue/block of PD-1 mediated inhibition in PD-1 Tg cells [1]	effect on PD-1 KO T cells [2]	rescue of IFN-γ production in the primary screen [3]
Cc1nnc(NS(=O)(=O)c2ccc(N)cc2)s1 [sulfamethizole]	block of PD-1 mediated inhibition in PD-1 Tg cells only when PD-L2 was present; also recorded: rescue of PD-1 mediated inhibition in PD-1 Tg cells only when PD-L2 was present	no effect	rescue of IFN-γ production above the negative control wells
COc1cc(NS(=O)(=O)c2ccc(N)cc2)ncn1 [sulfamonomethoxine]	block of PD-1 mediated inhibition in PD-1 Tg cells only when PD-L2 was present; also recorded: rescue of PD-1 mediated inhibition in PD-1 Tg cells only when PD-L2 was present	no effect	rescue of IFN-γ production above the negative control wells
